Counter-ions that a name gives are not always drawn. Bounds are passed on as bounds.

Sequence of BTK (Q06187 393-659): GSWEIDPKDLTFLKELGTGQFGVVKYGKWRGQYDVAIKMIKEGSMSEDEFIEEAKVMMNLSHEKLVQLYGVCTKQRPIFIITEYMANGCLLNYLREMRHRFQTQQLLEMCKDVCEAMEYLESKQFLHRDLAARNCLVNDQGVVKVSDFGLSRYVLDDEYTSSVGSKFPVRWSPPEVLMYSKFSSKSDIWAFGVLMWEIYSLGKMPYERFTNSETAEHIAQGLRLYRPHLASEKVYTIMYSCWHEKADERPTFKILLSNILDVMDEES

The target in the test is BTK (Homo sapiens (Human), UniProt Q06187). Description: In vitro BTK kinase activity measured by trFRET. Type of test: biochemical. The note with it: recombinant human catalytic domain (aa 393-659), 0.01 mM ATP; read-out: Btk enzyme IC50. As for the experimental part:
In Vitro BTK Kinase Activity Measured by Time-Resolved Fluorescence Resonance Energy Transfer (trFRET)
The in-house BTK corresponds to recombinant human catalytic domain (aa 393-659), which was expressed in SF9 cells with an N-terminal his tag and purified by immobilized metal affinity chromatography. BTK was mixed with peptide substrate (biotin-TYR1, Sequence: Biotin-(Ahx)-GAEEEIYAAFFA-COOH, 0.4 μM final) at varying inhibitor concentrations in reaction buffer: 50 mM MOPSO pH 6.5, 10 mM MgCl2, 2 mM MnCl2, 2.5 mM DTT, 0.01% BSA, 0.1 mM Na3VO4 and 0.01 mM ATP. After about 60 min incubation at rt, the reaction was quenched by addition of EDTA (final concentration: 100 mM) and developed by addition of detection reagents (final approximate concentrations: 30 mM HEPES pH 7.0, 0.06% BSA, 0.006% Tween-20, 0.24 M KF, 80 ng/mL PT66K (europium labeled anti-phosphotyrosine antibody cat #61T66KLB Cisbio, Bedford, Mass.) and 0.6 μg/mL SAXL (Phycolink streptavidin-allophycocyanin acceptor, cat #PJ25S, Prozyme, San Leandro, Calif.). The developed reaction was incubated in the dark for about 60 min at rt, then read via a time-resolved fluorescence detector (Rubystar, BMG) using a 337 nm laser for excitation and monitoring emission wavelength at 665 nm. Within the linear range of the assay, the observed signal at 665 nm was directly related to phosphorylated product and can be used to calculate the IC50 values.
A word on the IC50: it is the concentration at which inhibition is half-maximal. Consider `C=CC(=O)N1CCC[C@H](c2cc(Nc3cc4n(n3)CCOC4)c3ncnn3c2)C1` (single isomer, unassigned) [Example 5], for which the IC50 is under 100 nM. With `C=CC(=O)N1CC[C@H](c2cn3ncnc3c(Nc3cnn(C)c3)n2)C1` (single isomer, unassigned) [Example 6], the IC50 was under 100 nM.

Consider `C=CC(=O)N[C@@H]1CC[C@H](c2cc(Nc3ccn(C)n3)c3ncnn3c2)C1` (single isomer, unassigned) [Example 7], for which the IC50 is under 100 nM. As for `C=CC(=O)N[C@@H]1CC[C@H](c2cc(Nc3cc4n(n3)CCOC4)c3ncnn3c2)C1` (single isomer, unassigned) [Example 8 (1R,3S)], the IC50 is under 100 nM.

In the case of `C=CC(=O)N[C@H]1CC[C@@H](c2cc(Nc3cc4n(n3)CCOC4)c3ncnn3c2)C1` (single isomer, unassigned) [Example 8 (1S,3R)], the IC50 is under 100 nM. For `C=CC(=O)N[C@@H]1CC[C@H](c2cc(Nc3ccc(N4CCOCC4)cn3)c3ncnn3c2)C1` (single isomer, unassigned) [Example 9 (1R,3S)], the IC50 was under 100 nM. Turning to `C=CC(=O)N[C@H]1CC[C@@H](c2cc(Nc3ccc(N4CCOCC4)cn3)c3ncnn3c2)C1` (single isomer, unassigned) [Example 9 (1S,3R)], the IC50 lay in the range of 100 to 1000 nM. Turning to `C=CC(=O)N1CCC[C@@H](c2cc(Nc3cc4n(n3)CCOC4)c3ncnn3c2)C1` (single isomer, unassigned) [Example F1.24], the IC50 fell in the range of 1000 to 50000 nM. In the case of `C=CC(=O)N1CC[C@@H](c2cn3ncnc3c(Nc3cnn(C)c3)n2)C1` (single isomer, unassigned) [Example F1.25] it was 1000 to 50000 nM; in that of `C=CS(=O)(=O)N1CC[C@H](c2cn3ncnc3c(Nc3ccc(OC)c(OC)c3)n2)C1` (single isomer, unassigned) [H.1], under 100 nM. In the case of `C=CC(=O)NCc1cccc(-c2cn3ncnc3c(Nc3ccc(N4CCOCC4)cc3)n2)c1` [C.1.1] it was 1000 to 50000 nM. Take `C=CC(=O)N1CCC(c2cc(Nc3ccn(C)n3)c3ncnn3c2)C1` (stereo not drawn) [Example 1, 1-(3-(8-((1-methyl-1H-pyrazol-3-yl)amino)-[1,2,4]triazolo[1,5-a]pyridin-6-yl)pyrrolidin-1-yl)prop-2-en-1-one]: the IC50 was under 100 nM. In the case of `C=CC(=O)N1CCC(c2cc(Nc3ccc(OC)nn3)c3ncnn3c2)C1` (stereo not drawn) [Example 2, 1-(3-(8-(6-Methoxypyridazin-3-ylamino)-[1,2,4]triazolo[1,5-a]pyridin-6-yl)pyrrolidin-1-yl)prop-2-en-1-one trifluoroacetate] it was 100 to 1000 nM; in that of `C=CC(=O)N1CC[C@H](c2cc(Nc3cc4n(n3)CCOC4)c3ncnn3c2)C1` [Example 4, 1-{(R)-3-[8-(6,7-Dihydro-4H-pyrazolo[5,1-c][1,4]oxazin-2-ylamino)-[1,2,4]triazolo[1,5-a]pyridin-6-yl]-pyrrolidin-1-yl}-propenone], under 100 nM. For `C=CC(=O)N1CCCC(c2cc(Nc3cc4n(n3)CCOC4)c3ncnn3c2)C1` (stereo not drawn) [Example F1.30, 1-(3-(8-((6,7-dihydro-4H-pyrazolo[5,1-c][1,4]oxazin-2-yl)amino)-[1,2,4]triazolo[1,5-a]pyridin-6-yl)piperidin-1-yl)prop-2-en-1-one], the IC50 is 100 to 1000 nM. Consider `C=CC(=O)N1CCCC(c2cc(Nc3nc(C(C)C)no3)c3ncnn3c2)C1` (stereo not drawn) [Example F1.31, 1-(3-(8-((3-isopropyl-1,2,4-oxadiazol-5-yl)amino)-[1,2,4]triazolo[1,5-a]pyridin-6-yl)piperidin-1-yl)prop-2-en-1-one], for which the IC50 fell in the range of 1000 to 50000 nM. In the case of `C=CC(=O)N1CCCC(c2cc(Nc3nc(C)no3)c3ncnn3c2)C1` (stereo not drawn) [Example F1.32, 1-(3-(8-((3-methyl-1,2,4-oxadiazol-5-yl)amino)-[1,2,4]triazolo[1,5-a]pyridin-6-yl)piperidin-1-yl)prop-2-en-1-one] it was 1000 to 50000 nM; in that of `C=CC(=O)N1CC[C@@H](c2cc(Nc3cc4n(n3)CCOC4)c3ncnn3c2)C1` [Example F1.33, (S)-1-(3-(8-((6,7-dihydro-4H-pyrazolo[5,1-c][1,4]oxazin-2-yl)amino)-[1,2,4]triazolo[1,5-a]pyridin-6-yl)pyrrolidin-1-yl)prop-2-en-1-one], 1000 to 50000 nM. As for `C=CC(=O)N[C@H]1CC[C@@H](c2cc(Nc3ccn(C)n3)c3ncnn3c2)C1` [Example F1.34], the figure is 100 to 1000 nM. In the case of `C=CC(=O)N[C@@H]1CCC[C@H](c2cc(Nc3ccn(C)n3)c3ncnn3c2)C1` [Example F1.35] it was under 100 nM. On to `C=CC(=O)N[C@H]1CCC[C@H](c2cc(Nc3ccn(C)n3)c3ncnn3c2)C1` [Example F1.36], for which the IC50 lay within 100 to 1000 nM. In the case of `C=CC(=O)N1CC[C@@H](c2cc(Nc3ccn(C)n3)c3ncnn3c2)C1` [Example F1.37, (S)-1-(3-(8-((1-methyl-1H-pyrazol-3-yl)amino)-[1,2,4]triazolo[1,5-a]pyridin-6-yl)pyrrolidin-1-yl)prop-2-en-1-one] it was 1000 to 50000 nM. In the case of `C=CC(=O)N1CCC(c2cn3ncnc3c(Nc3ccc4c(c3)NC(=O)CCC4)n2)C1` (stereo not drawn) [F.1, 8-((6-(1-acryloylpyrrolidin-3-yl)-[1,2,4]triazolo[1,5-a]pyrazin-8-yl)amino)-4,5-dihydro-1H-benzo[b]azepin-2(3H)-one], the IC50 is under 100 nM. As for `C=CC(=O)NCc1cccc(-c2cn3ncnc3c(NC34CC(C3)C4)n2)c1` [F.1.1], the IC50 was in the range of 100 to 1000 nM. On to `C=CC(=O)Nc1cccc(-c2cn3ncnc3c(NC34CC(C3)C4)n2)c1` [F.1.2], for which the IC50 was in the range of 100 to 1000 nM. Turning to `C=CC(=O)Nc1ccccc1-c1cn2ncnc2c(NC23CC(C2)C3)n1` [F.1.3], the IC50 fell in the range of 1000 to 50000 nM. On to `C=CC(=O)N1CCCC(c2cn3ncnc3c(Nc3ccc4c(c3)NC(=O)CCC4)n2)C1` (stereo not drawn) [F.1.4, 8-((6-(1-acryloylpiperidin-3-yl)-[1,2,4]triazolo[1,5-a]pyrazin-8-yl)amino)-4,5-dihydro-1H-benzo[b]azepin-2(3H)-one], for which the IC50 was under 100 nM. As for `C=CC(=O)Nc1cccc(-c2cn3ncnc3c(Nc3ccc4c(c3)NC(=O)CCC4)n2)c1` [F.1.5, N-(3-(8-((2-oxo-2,3,4,5-tetrahydro-1H-benzo[b]azepin-8-yl)amino)-[1,2,4]triazolo[1,5-a]pyrazin-6-yl)phenyl)acrylamide], the figure is under 100 nM; as for `C=CC(=O)N1CCC(c2cn3ncnc3c(Nc3ccc(OC)c(OC)c3)n2)C1` (stereo not drawn) [F.1.8], 100 to 1000 nM; as for `C=CC(=O)N1CC[C@@H](c2cn3ccnc3c(Nc3ccc4c(c3)NC(=O)CCC4)n2)C1` [F.1.9, (R)-8-((6-(1-acryloylpyrrolidin-3-yl)imidazo[1,2-a]pyrazin-8-yl)amino)-4,5-dihydro-1H-benzo[b]azepin-2(3H)-one], under 100 nM. In the case of `C=CC(=O)N1CC[C@H](c2cn3ccnc3c(Nc3ccc4c(c3)NC(=O)CCC4)n2)C1` [F.1.10, (S)-8-((6-(1-acryloylpyrrolidin-3-yl)imidazo[1,2-a]pyrazin-8-yl)amino)-4,5-dihydro-1H-benzo[b]azepin-2(3H)-one], the IC50 was 100 to 1000 nM. Regarding `C=CC(=O)N1CC[C@H](c2cn3ncnc3c(Nc3ccc(OC)c(OC)c3)n2)C1` [F.1.11], the IC50 was 100 to 1000 nM. In the case of `C=CC(=O)N1CCC(c2cn3ncnc3c(Nc3ccc4c(c3)NC(=O)CC4)n2)C1` (stereo not drawn) [F.1.13, 7-((6-(1-acryloylpyrrolidin-3-yl)-[1,2,4]triazolo[1,5-a]pyrazin-8-yl)amino)-3,4-dihydroquinolin-2(1H)-one] it was 100 to 1000 nM.
